Experiments:
E. coli CRP = target: T1, E. coli CRP (Escherichia coli, UniProt P0ACJ8); assay: DRaCALA binding of radiolabeled nucleotides to purified CRP; settings: 20 μM purified protein; 500 nM 14C-cAMP, 4 nM 32P-ATP or 4 nM 32P-cdiGMP
T1 construct: His; made in house
Experimental: (§1) Radiolabeled ligands were incubated with each of the proteins and the mixtures were spotted on nitrocellulose. After spreading by capillary action, membranes were dried and quantitated by phosphorimager. […] The specificity of Alg44PilZ binding to cdiGMP was further tested by competition with excess unlabeled nucleotides (400-fold molar excess relative to the Alg44PilZ protein).
Protein or whole cell lysates in 1× cdiGMP binding buffer (20 μl) was mixed with 4 nM of radiolabeled nucleotide and allowed to incubate for 10 minutes at room temperature. Radiolabeled nucleotide was competed away by cold nucleotides in concentrations and for times indicated. Purified proteins were tested in technical replicates. Whole cell lysates in FIG. 4 and FIG. 12 were tested in biological triplicates. Whole cell lysates in FIG. 5 were tested in technical replicates. These mixtures were pipetted (2.5-5 μl) onto dry, untreated nitrocellulose (GE Healthcare) in triplicate and allowed to dry completely before quantification. An FLA7100 Fujifilm Life Science Phosphorimager was used to detect luminescence following a 5-minute exposure of blotted nitrocellulose to phosphorimager film. Data was quantified using Fujifilm Multi Gauge software v3.0.

[1] = target: Maltose binding protein (MBP) (Escherichia coli, UniProt P0AEX9); settings: whole-cell lysate, 8 nM 32P-cdiGMP
Experimental: as §1

[2] = target: T2, P. aeruginosa Alg44PilZ (His-MBP-Alg44PilZ) (Pseudomonas aeruginosa, UniProt Q9HY69); assay: biochemical; format: binding
T2 construct: His-MBP-Alg44PilZ was varied from 100 μM to 6 nM; made in house; host or cells: E. coli BL21(DE3)
T2 sequence (Q9HY69 16-116): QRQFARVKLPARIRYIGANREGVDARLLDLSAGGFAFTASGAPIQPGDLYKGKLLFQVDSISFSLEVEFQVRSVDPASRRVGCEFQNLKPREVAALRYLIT
Excerpt: DRaCALA exploits the ability of nitrocellulose membranes to preferentially sequester proteins over small molecule ligands. When a mixture of protein and radiolabeled ligand is spotted onto a dry nitrocellulose membrane, protein and bound ligand are immobilized at the site of contact while free ligand is mobilized by capillary action with the liquid phase (FIG. 1A). DRaCALA is a rapid assay, as the capillary action can be completed in less than 5 seconds. […] Because capillary action distributes the unbound ligand throughout the mobile phase, the calculation for the fraction bound (FB) can be corrected for this background (see below for edge effects at the solvent front and annulation of the protein). Therefore, FB is defined by the equation in FIG. 1B, where Iinner is the intensity of signal in the area with protein (inner circle) and Itotal is the total signal of the entire sample (outer circle). The Iinner signal consists of both ligand bound to protein and unbound ligand that has not mobilized beyond the area of the inner circle, which we define as Ibackground. Ibackground can be calculated by subtracting the signal intensity of the Iinner from the total ligand Itotal and adjusting for the relative areas of the inner (Ainner) and outer circles (Atotal) (FIG. 1B).
as §1
Kd can be measured by altering either the protein or ligand concentrations in titration experiments; since DRaCALA detects only the ligand mobility, ligand concentrations can be always held constant. […] Since the assay is completed in less than 5 seconds, DRaCALA can also be used to determine the koff for those protein-ligand complexes with slower off rates. koff was determined for cdiGMP and Alg44PilZ by spotting at the indicated time points after the addition of 1 mM unlabeled cdiGMP to a pre-incubated mixture of Alg44PilZ and ^32P-cdiGMP (FIG. 3C). […] Both edge and annulation effects are explained in FIG. 8. The edge effect is due to evaporation of the solvent during the time of the experiment, and is dependent on the humidity of the local environment around the nitrocellulose support. The evaporation results in a smaller total area (Atotal observed in FIG. 8A) and leads to an increased value in the calculated Ibackground. As a secondary correction for the edge effect, the fraction bound determined for spotted ligand in the absence of protein can be subtracted from all samples in parallel (FIG. 8B).

Vc2* riboswitch RNA [3] = assay: DRaCALA of cdiGMP binding to biotinylated Vc2* RNA immobilized by streptavidin; settings: Vc2*-biotin RNA diluted, 4 nM 32P-cdiGMP
Experimental: FIG. 19. Vc2* RNA binding to ^32P-cdiGMP is detected by DRaCALA. (A) Spots visualized by phosphorimager with streptavidin used to immobilize biotinylated RNA. The binding reaction contained 4 nM ^32P-cdiGMP, 1 μM RNA, and 200 nM streptavidin in buffer (10 mM KCl, 10 mM sodium cacodylate, 3 mM MgCl2). (B) The affinity of Vc2*-biotin RNA for cdiGMP was determined with both EMSA and DRaCALA by diluting RNA in the binding reaction. The fraction bound is normalized such that 1.0 represents maximal binding.
We have shown that protein interaction with DNA can be detected by DRaCALA. We wondered if the principle of DRaCALA would also apply to ribonucleic acids. In particular, can the DRaCALA technology be used to detect the interaction of riboswitches with their small molecule ligands. One example of such an interaction that has been of recent interest is the cdiGMP responsive Vc2 riboswitch identified in bacteria. To study such an interaction with DRaCALA, one of the binding partners must be immobilized. […] The biotinylated riboswitch was sequestered by streptavidin, allowing the nucleic acid to take the place of protein as the immobile partner in the binding assay. Vc2* was tested directly for sequestration of cdiGMP and also biotinylated and tested for binding to cdiGMP in the presence or absence of streptavidin. […]

Vc2* riboswitch RNA [4] = assay: Electrophoretic mobility shift assay (EMSA) of cdiGMP binding to Vc2* RNA; settings: read-out: Kd (apparent affinity)
Excerpt: We have shown that protein interaction with DNA can be detected by DRaCALA. We wondered if the principle of DRaCALA would also apply to ribonucleic acids. In particular, can the DRaCALA technology be used to detect the interaction of riboswitches with their small molecule ligands. One example of such an interaction that has been of recent interest is the cdiGMP responsive Vc2 riboswitch identified in bacteria. To study such an interaction with DRaCALA, one of the binding partners must be immobilized. […] The biotinylated riboswitch was sequestered by streptavidin, allowing the nucleic acid to take the place of protein as the immobile partner in the binding assay. Vc2* was tested directly for sequestration of cdiGMP and also biotinylated and tested for binding to cdiGMP in the presence or absence of streptavidin. The 4 nM radiolabelled cdiGMP was mobile alone and in the presence of the Vc2* or biotinylated Vc2* RNA (FIG. 19A, lanes 1-3). […] Biotinylated Vc2* RNA and bound cdiGMP was immobilized by streptavidin as expected (lane 6). […]
Gel shift assays were performed using 8% acrylamide gels with 100 mM Tris/HEPES, pH=7.5, 10 mM MgCl2, and 0.1 mM EDTA in the gel and running buffer. […] Gels were imaged with a phosphorimager and fraction bound quantified with Fuji Image Guage software. […]

T1 sequence (P0ACJ8 whole entry): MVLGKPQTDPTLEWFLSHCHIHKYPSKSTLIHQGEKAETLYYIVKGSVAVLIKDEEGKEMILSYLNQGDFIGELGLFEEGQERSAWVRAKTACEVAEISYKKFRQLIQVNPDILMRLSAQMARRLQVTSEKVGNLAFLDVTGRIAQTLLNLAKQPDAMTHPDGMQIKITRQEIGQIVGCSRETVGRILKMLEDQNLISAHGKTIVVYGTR

SMILES: Nc1nc2c(ncn2[C@@H]2O[C@@H]3CO[P@](=O)(O)O[C@H]4[C@@H](O)[C@H](n5cnc6c(=O)[nH]c(N)nc65)O[C@@H]4CO[P@](=O)(O)O[C@H]3[C@H]2O)c(=O)[nH]1 [cdiGMP, cyclic-di-GMP]
- binding to CRP (sequestration of radiolabel signal) (E. coli CRP): did not bind
- binding by protein extracts from E. coli expressing MBP alone [1]: did not bind
- Kd [2]: 1600 nM
- koff [2]: 0.017 ± 0.002 s⁻¹
- binding to Alg44PilZ (sequestration of radiolabel signal) ([2]; 20 μM purified protein, 500 nM 14C-cAMP, 4 nM 32P-ATP or 4 nM 32P-cdiGMP): bound
- time until 32P-cdiGMP binding completely competed away ([2]; 1 mM unlabeled cdiGMP): ≤ 90 s
- half-life (t1/2) ([2]; corresponding to koff, DRaCALA): 35.6 ± 10.7 s
- Kd (Vc2* riboswitch RNA [3]): 7.8 nM
- Kd (Vc2* riboswitch RNA [4]): 9.8 nM

— patent US20130337579A1, “Methods for Determining Protein Ligand Binding” (UNIVERSITY OF MARYLAND, COLLEGE PARK, priority 2010, published 2013)
